# Data from article PMC7067850, “Identification of highly potent and selective inhibitor, TIPTP, of the p22phox-Rubicon axis as a therapeutic agent for rheumatoid arthritis” (Scientific Reports, 2020).
# Assays:
# [1] = Pharmacokinetic study in male ICR mice (IP and IV); type: in vivo, mouse
# Protocol: TIPTP at a dose of 0.5 mg/kg and 1 mg/kg was administered intravenously and intraperitoneally to male ICR mice. Blood samples were collected via the carotid artery at 0 (to serve as a control), 0.03, 0.16, 0.25, 0.5, 1, 2, 4, 6, and 24 h after administration of the compound. After centrifugation at 3000 rpm for 10 min, a 13.5 µL aliquot of plasma samples were stored at -20 C until analysis. Pharmacokinetic parameters were determined by a noncompartmental analysis using WinNonlin® (Pharsight Corporation, Mountain View, CA) program. The total area under the plasma concentration-time curve from time zero to the last measured time (AUClast) was calculated by the trapezoidal rule[…] method. Standard methods in the literature (M. Gibaldi, D. Perrier, Pharmacokinetics, second ed., Marcel-Dekker, New York, 1982.) were used to calculate the following pharmacokinetic parameters; the time averaged total body clearance (CL), total area under the first moment of plasma concentration-time curve from time zero to time infinity (AUC0-∞), terminal half-life, mean residence time (MRT), apparent volume of distribution at steady state (Vss). Concentrations of the compound in the above samples were analyzed using LC-MS/MS. To a 13.5 µL aliquot of plasma sample, a 60 µL aliquot of acetonitrile containing 1 µg/mL of internal standard (carbamazepine) was added. After vortex mixing and centrifugation at 6,000 rpm for 15 min, a […] of supernatant was added to 100μL distilled water and injected into LCMS/MS system. The LC-MS/MS system consisted of Agilent 1200 series HPLC system (Agilent, Santa Clara, CA) and API3200® triple-quadrupole mass spectrometer (Applied Biosystems-SCIEX, Concord, Canada). The HPLC mobile phases consisted of 0.1% formic acid in water (A) and acetonitrile (B). Chromatographic separation was achieved on a reversed-phase Atlantis T3 column (100 x 2.1 mm, 3 µm, Waters Corporation, Milford, MA) using gradient elution at a flow rate of 0.25 mL/min. The lower limit of quantitation of the compound in mice plasma was 9.7 ng/mL. The values of coefficients of correlation (R) were more than 0.997.
# [2] = biological target: T1, p22phox–Rubicon interaction (Homo sapiens, UniProt P13498); test: p22phox–Rubicon interaction, co-IP in 293T cells co-transfected with V5-p22phox and Flag-Rubicon; type: cell-based; details: inhibition of p22phox–Rubicon interaction, compounds 0.01-20 μM for 24 h (Supplemental Fig. 5a)
# T1 construct: The plasmid encoding full-length of the p22phox (V5-p22phox) and Rubicon (Flag-Rubicon) were previously described; expressed in transfected cells; host or cells: HEK293T (293T) cells, transient co-transfection
# T1 sequence (P13498 1-195): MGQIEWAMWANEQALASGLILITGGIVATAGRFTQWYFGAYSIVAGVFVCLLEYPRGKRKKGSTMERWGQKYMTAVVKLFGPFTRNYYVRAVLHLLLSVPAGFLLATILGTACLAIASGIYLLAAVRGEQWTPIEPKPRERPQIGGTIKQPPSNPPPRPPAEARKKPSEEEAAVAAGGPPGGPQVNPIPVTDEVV
# Protocol: Immunoblot and immunoprecipitation assays were performed as described previously[18],[23]. For immunoprecipitation, cells were harvested and then lysed in NP-40 buffer supplemented with a complete protease inhibitor cocktail (Roche). After pre-clearing with protein A/G agarose beads (GE Healthcare Life Science) for 1 h at 4 °C, whole-cell lysates were used for immunoprecipitation with the indicated antibodies. Generally, 1–4 μg of commercial antibody was added to 1 ml of cell lysates and incubated at 4 °C for 8 to 12 h. After the addition of protein A/G agarose beads for 6 h, immunoprecipitants were extensively washed with lysis buffer and eluted with SDS loading buffer by boiling for 5 min.
# For immunoblotting, polypeptides were resolved by SDS-polyacrylamide gel electrophoresis and transferred to a PVDF membrane (Bio-Rad). […] Antibody binding was visualized by chemiluminescence (ECL; Millipore) and detected by a Vilber chemiluminescence analyzer (Fusion SL 3; Vilber Lourmat).
# (a) 293T cells were co-transfected with V5-p22phox and Flag-Rubicon. 12 h post transfection, cells were treated with compound 1 or 2 (0.01, 0.1, 1, 5, 10, 20 μM) for 24 h, and subjected to IP with αFlag, followed by IB with αV5. WCLs were used for IB with αFlag, αV5, or αActin. […]
# [3] = IP, 1 mg/kg, male ICR mouse plasma
# [4] = IV, 0.5 mg/kg, male ICR mouse plasma
structure (smiles),measurement,setting,value
"C[C@@H](Oc1cccc(-n2cc3c(n2)CCCC3)c1)C(=O)Nc1nnc(C(F)(F)F)s1 [TIPTP, (R)-2-(3-(4,5,6,7-tetrahydro-2H-indazol-2-yl)phenoxy)-N-(5-(trifluoromethyl)-1,3,4-thiadiazol-2-yl)propanamide]",AUC(0-inf),[1]; [3],15100 ± 3410 ng·h/mL
same,Cmax,[1]; [3],5590 ± 1430 ng/mL
same,MRT inf,[1]; [3],3.42 ± 0.43 h
same,Tmax,[1]; [3],0.23 ± 0.04 h
same,half-life,[1]; [3],2.91 ± 0.14 h
same,AUC(0-t),"[1]; IP, 1 mg/kg, male ICR mouse plasma, n = 5, mean ± SD",15100 ± 3410 ng·h/mL
same,AUC(0-inf),[1]; [4],10000 ± 451 ng·h/mL
same,MRT inf,[1]; [4],2.57 ± 0.52 h
same,half-life,[1]; [4],3.67 ± 0.39 h
same,AUC(0-t),"[1]; IV, 0.5 mg/kg, male ICR mouse plasma, n = 3, mean ± SD",9980 ± 446 ng·h/mL
same,clearance,"[1]; plasma, IV, 0.5 mg/kg, male ICR mouse",0.832 mL/min/kg
same,Vd,"[1]; plasma, IV, 0.5 mg/kg, male ICR mouse, read-out: Vss",0.128 ± 0.0246 L/kg
same,IC50,[2],100 nM
